From patent US11389423B2, “Pharmaceutical composition, excipient for the composition and use of the composition” (priority 2018, dated 2022)

Key:
[1] = system: striatal levels of dopamine, DOPAC and AVM; test: Determination of striatal dopamine, DOPAC and HVA levels (HPLC-ECD), MPTP model; assay type: in vivo, rats
Method: For the experiments with MPTP (neuroprotection), the animals were divided into the following experimental groups: • MPTP+placebo • MPTP+CBD-SINT 12 mg/kg • MPTP+CBD-SINT 36 mg/kg • MPTP+CBD-SINT 120 mg/kg • Sham+placebo • Naive
CBD-SINT and placebo were administered orally (gavage) for 18 days prior to the administration of the neurotoxin by stereotactic surgery, and for another 10 days after surgery. After the administration of the neurotoxin, the behavioral (locomotor activity) and biochemical (brain dopamine dosage) parameters were evaluated after 24 hours and after 10 days. The memory tests (Morris water maze) were performed daily from day 1 to day 10 after the administration of the neurotoxin (FIG. 13).
The rats were submitted to stereotactic surgery (stereotactic—David Kopf, model 957L) and received bilateral microinfusion of MPTP or 6-OHDA (different groups of rats) directly into the substantia nigra. For surgery, the following stereotaxic coordinates were used: anteroposterior: 5.0 mm from the bregma; mediolateral: ±2.1 mm from the midline and dorsoventral: −7.7 mm from the cranial vault (Paxinos and Watson, 1986). Then, 100 μg MPTP (diluted in 1 μL saline, with a flow of 0.33 μL/min) or 8 μg 6-OHDA (diluted in 2 μL saline with 0.2 μg/μL ascorbic acid, with a flow rate of 0.33 μL/min) were injected. The microinfusions were performed with the aid of a needle (30 gauge) connected to a polyethylene tube adapted to a […] micro-syringe (Hamilton, USA), which in turn, is fitted into an infusion pump (Harvard Apparatus, USA). After the end of the microinfusion, the needle was kept in place for another 2 minutes to prevent reflux of the neurotoxins. Then, the scalp was sutured, and the animals were removed from the stereotaxic. The rats were then placed in its original cages. The animals in the Sham groups were subject to the same surgical procedure, however without receiving the neurotoxins, being only introduced to the needle in the same stereotactic coordinates. The rats of naive groups were not subject to stereotactic surgery but were removed from the housing cage for handling for a few hours.
After the last set of experiments, the animals from the nigrostriatal treatment with MPTP and its respective controls were euthanized by decapitation. The levels of dopamine (DA) and its metabolites 3,4-dihydroxyphenylacetic acid (DOPAC) and homovanilic acid (HVA) were determined by high-performance liquid chromatography with an electrochemical detector (HPLC-ECD) according to Luo et al. (2009).
Briefly, the striatum was dissected, weighed, and homogenized in 0.2 M cold perchloric acid. The sample was then centrifuged twice at 14,000 g for 15 min at 4° C. […]

[2] = system: Salmonella typhimurium TA98; test: AMES test, strain TA98; assay type: cell-based; conditions: TA98, with (+S9) and without (-S9) metabolic activation, 62.5-375 μg/plate
Text: For the AMES test, the TA 100 and TA 98 strains of Salmonella typhimurium were used. The strain TA 100, which detects mutagens causing base pair replacement in DNA, contains a mutation in the hisG gene (hisG46), which codes for the first histidine biosynthesis enzyme, with the CG pair as the preferred point for reversion. The strain TA 98 has a mutation in the hisD gene to reverse eight repetitive GC residues and detects mutagenic compounds causing the DNA reading frame to shift. According to the methodology of direct incorporation in plates, developed by Maron and Ames (1983), different concentrations of CBD-SINT (375, 250, 125 and 62.5 μg/plate) were mixed with 0.1 mL of the bacteria culture and 2 mL of surface agar (top agar), supplemented with traces of histidine and biotin. For the tests with metabolic activation, 0.5 mL homogenized microsomal fraction S9 of rat liver (post-mitochondrial fraction, supplemented with a cofactor, prepared from the liver of rodents treated with an enzymatic inducing agent, arochloror 1254) (MOLTOX—Molecular Toxicology, USA) were added. As a negative control, double-distilled water (vehicle) was used. As a positive control for TA98, 4-nirophenylenediamine (NPD) dissolved in DMSO was used at a concentration of 10 μg/plate. […] After this period, the number of reversing colonies per plate was counted. […]

In the case of `C=C(C)[C@@H]1CCC(C)=C[C@H]1c1c(O)cc(CCCCC)cc1O` [CBD-SINT, Cannabidiol], the “striatal levels of DOPAC” value ([1]; MPTP rats, 12 mg/kg orally) is reported as “significantly increase”, the “striatal levels of dopamine” value ([1]; MPTP rats, 12 mg/kg orally) is reported as “significantly increase” and the “levels of all markers after treatment vs naive and Sham groups” value ([1]; MPTP rats, 12, 36 and 120 mg/kg orally) is reported as “statistically lower”. For the same compound, the “striatal concentration of all evaluated markers (dopamine, DOPAC and AVM)” value ([1]; MPTP rats, 36 and 120 mg/kg orally) was “increased”, the “frequency of reversible mutants with the increase in concentration” value [2] was “no increase” and the “mutagenicity ratios (MR)” value [2] was “less than 2”.
